Numbers after ± are expanded uncertainties.
Columns and labels:
[1] = Liquid, Capillary tube (Ostwald / Ubbelohde) method
[2] = xn = mol fraction of the nth substance listed; conditions: Liquid, isochoric method, x1 = 0.1965

CCCCCCCCCCO [decan-1-ol]
viscosity ([1]; 298.15 K, 2000 kPa): 11.25 ± 0.12 mPa·s
viscosity ([1]; 298.15 K, 3990 kPa): 11.54 ± 0.12 mPa·s
viscosity ([1]; 298.15 K, 6010 kPa): 11.79 ± 0.12 mPa·s
viscosity ([1]; 298.15 K, 8010 kPa): 12.05 ± 0.12 mPa·s
viscosity ([1]; 298.15 K, 10010 kPa): 12.35 ± 0.13 mPa·s
viscosity ([1]; 298.15 K, 13010 kPa): 12.74 ± 0.13 mPa·s
viscosity ([1]; 298.15 K, 16010 kPa): 13.16 ± 0.14 mPa·s
viscosity ([1]; 298.15 K, 19010 kPa): 13.57 ± 0.14 mPa·s
viscosity ([1]; 298.15 K, 22010 kPa): 14.01 ± 0.14 mPa·s
viscosity ([1]; 298.15 K, 25000 kPa): 14.46 ± 0.15 mPa·s
viscosity ([1]; 298.15 K, 28000 kPa): 14.89 ± 0.15 mPa·s
viscosity ([1]; 298.15 K, 29990 kPa): 15.19 ± 0.16 mPa·s
viscosity ([1]; 303.15 K, 1990 kPa): 8.895 ± 0.093 mPa·s
viscosity ([1]; 303.15 K, 4000 kPa): 9.117 ± 0.095 mPa·s
viscosity ([1]; 303.15 K, 5980 kPa): 9.337 ± 0.097 mPa·s
viscosity ([1]; 303.15 K, 8010 kPa): 9.562 ± 0.1 mPa·s
viscosity ([1]; 303.15 K, 10020 kPa): 9.784 ± 0.1 mPa·s
viscosity ([1]; 303.15 K, 12980 kPa): 10.11 ± 0.11 mPa·s
viscosity ([1]; 303.15 K, 15970 kPa): 10.44 ± 0.11 mPa·s
viscosity ([1]; 303.15 K, 19020 kPa): 10.78 ± 0.11 mPa·s
viscosity ([1]; 303.15 K, 22000 kPa): 11.11 ± 0.12 mPa·s
viscosity ([1]; 303.15 K, 24980 kPa): 11.44 ± 0.12 mPa·s
viscosity ([1]; 303.15 K, 27980 kPa): 11.77 ± 0.12 mPa·s
viscosity ([1]; 303.15 K, 30010 kPa): 12 ± 0.12 mPa·s
viscosity ([1]; 313.15 K, 2030 kPa): 6.219 ± 0.066 mPa·s
viscosity ([1]; 313.15 K, 4020 kPa): 6.374 ± 0.067 mPa·s
viscosity ([1]; 313.15 K, 6000 kPa): 6.526 ± 0.069 mPa·s
viscosity ([1]; 313.15 K, 7980 kPa): 6.68 ± 0.071 mPa·s
viscosity ([1]; 313.15 K, 9980 kPa): 6.835 ± 0.072 mPa·s
viscosity ([1]; 313.15 K, 12990 kPa): 7.068 ± 0.074 mPa·s
viscosity ([1]; 313.15 K, 15990 kPa): 7.299 ± 0.077 mPa·s
viscosity ([1]; 313.15 K, 18990 kPa): 7.532 ± 0.079 mPa·s
viscosity ([1]; 313.15 K, 22010 kPa): 7.766 ± 0.082 mPa·s
viscosity ([1]; 313.15 K, 25020 kPa): 7.999 ± 0.084 mPa·s
viscosity ([1]; 313.15 K, 28020 kPa): 8.231 ± 0.086 mPa·s
viscosity ([1]; 313.15 K, 29980 kPa): 8.382 ± 0.088 mPa·s
viscosity ([1]; 323.15 K, 2000 kPa): 4.735 ± 0.051 mPa·s
viscosity ([1]; 323.15 K, 4010 kPa): 4.857 ± 0.052 mPa·s
viscosity ([1]; 323.15 K, 6010 kPa): 4.97 ± 0.053 mPa·s
viscosity ([1]; 323.15 K, 8010 kPa): 5.091 ± 0.055 mPa·s
viscosity ([1]; 323.15 K, 9990 kPa): 5.202 ± 0.056 mPa·s
viscosity ([1]; 323.15 K, 13010 kPa): 5.369 ± 0.057 mPa·s
viscosity ([1]; 323.15 K, 16010 kPa): 5.54 ± 0.059 mPa·s
viscosity ([1]; 323.15 K, 19020 kPa): 5.726 ± 0.061 mPa·s
viscosity ([1]; 323.15 K, 22020 kPa): 5.892 ± 0.063 mPa·s
viscosity ([1]; 323.15 K, 25010 kPa): 6.072 ± 0.064 mPa·s
viscosity ([1]; 323.15 K, 28000 kPa): 6.247 ± 0.066 mPa·s
viscosity ([1]; 323.15 K, 30010 kPa): 6.373 ± 0.067 mPa·s

CCCCCCCC [octane] + O=C=O
mass density ([2]; 313.05 K, 8000 kPa): 740.9 ± 0.8 kg/m3
mass density ([2]; 313.05 K, 9000 kPa): 750.1 ± 0.8 kg/m3
mass density ([2]; 313.05 K, 10000 kPa): 758.3 ± 0.8 kg/m3
mass density ([2]; 313.05 K, 11000 kPa): 765.4 ± 0.8 kg/m3
mass density ([2]; 313.05 K, 12000 kPa): 771.9 ± 0.8 kg/m3
mass density ([2]; 313.05 K, 13000 kPa): 777.9 ± 0.8 kg/m3
mass density ([2]; 313.05 K, 14000 kPa): 783.5 ± 0.8 kg/m3
mass density ([2]; 313.05 K, 15000 kPa): 788.7 ± 0.8 kg/m3
mass density ([2]; 313.05 K, 16000 kPa): 793.6 ± 0.8 kg/m3
mass density ([2]; 313.05 K, 17000 kPa): 798.2 ± 0.8 kg/m3
mass density ([2]; 313.05 K, 18000 kPa): 802.7 ± 0.8 kg/m3
mass density ([2]; 313.05 K, 19170 kPa): 807 ± 0.8 kg/m3
mass density ([2]; 313.05 K, 20000 kPa): 811.1 ± 0.8 kg/m3
mass density ([2]; 313.05 K, 21000 kPa): 815 ± 0.8 kg/m3
mass density ([2]; 313.05 K, 22000 kPa): 818.7 ± 0.8 kg/m3
mass density ([2]; 313.05 K, 22990 kPa): 822.2 ± 0.8 kg/m3
mass density ([2]; 313.05 K, 24000 kPa): 825.6 ± 0.9 kg/m3
mass density ([2]; 313.05 K, 24550 kPa): 827.5 ± 0.9 kg/m3
mass density ([2]; 322.96 K, 9000 kPa): 716.1 ± 0.8 kg/m3
mass density ([2]; 322.96 K, 10000 kPa): 724.1 ± 0.8 kg/m3
mass density ([2]; 322.96 K, 11000 kPa): 731.9 ± 0.8 kg/m3
mass density ([2]; 322.96 K, 12000 kPa): 739.1 ± 0.8 kg/m3
mass density ([2]; 322.96 K, 13000 kPa): 745.8 ± 0.8 kg/m3
mass density ([2]; 322.96 K, 14000 kPa): 752 ± 0.8 kg/m3
mass density ([2]; 322.96 K, 15000 kPa): 757.7 ± 0.8 kg/m3
mass density ([2]; 322.96 K, 16000 kPa): 763.1 ± 0.79 kg/m3
mass density ([2]; 322.96 K, 17000 kPa): 768.2 ± 0.8 kg/m3
mass density ([2]; 322.96 K, 18000 kPa): 772.9 ± 0.8 kg/m3
mass density ([2]; 322.96 K, 19000 kPa): 777.5 ± 0.8 kg/m3
mass density ([2]; 322.96 K, 20000 kPa): 781.8 ± 0.8 kg/m3
mass density ([2]; 322.96 K, 21000 kPa): 786 ± 0.8 kg/m3
mass density ([2]; 322.96 K, 22000 kPa): 789.9 ± 0.8 kg/m3
mass density ([2]; 322.96 K, 22960 kPa): 793.6 ± 0.8 kg/m3
mass density ([2]; 322.96 K, 23960 kPa): 797.3 ± 0.8 kg/m3
mass density ([2]; 332.84 K, 16000 kPa): 732.9 ± 0.8 kg/m3
mass density ([2]; 332.84 K, 17000 kPa): 739.2 ± 0.8 kg/m3
mass density ([2]; 332.84 K, 18000 kPa): 745.1 ± 0.8 kg/m3
mass density ([2]; 332.84 K, 19000 kPa): 750.6 ± 0.8 kg/m3
mass density ([2]; 332.84 K, 20000 kPa): 755.8 ± 0.8 kg/m3
mass density ([2]; 332.84 K, 21020 kPa): 760.8 ± 0.8 kg/m3
mass density ([2]; 332.84 K, 22020 kPa): 765.4 ± 0.8 kg/m3
mass density ([2]; 332.84 K, 22980 kPa): 769.7 ± 0.8 kg/m3
mass density ([2]; 332.84 K, 23990 kPa): 773.9 ± 0.8 kg/m3
mass density ([2]; 332.84 K, 24790 kPa): 777.1 ± 0.8 kg/m3
